# pIC50: −log10 of the molar value.
# Key:
# [1] = system: Con-NCI-H82 cell; experiment: Cell viability (Promega CellTiter-Glo, intracellular ATP), IC50 on Con-NCI-H82 cell; type: cell-based; details: Homo sapiens; normal untreated NCI-H82 cell (control)
# Text: (§1) The expression of NNMT protein in NCI-H82 cell was overexpressed by inserting the NNMT gene into NCI-H82 cell using a viral vector, and the NNMT protein-overexpressing NCI-H82 cell (ov-NNMT NCI-H82 cell) was obtained. The normal and untreated NCI-H82 cell (Con-NCI-H82 cell) was used as control. The expressing content of NNMT protein in the ov-NNMT NCI-H82 cell and Con-NCI-H82 cell was detected using Western Blot assay (as shown in FIG. 1), it could be seen from FIG. 1 that the NNMT protein was overexpressed in the ov-NNMT NCI-H82 cell compared with the expression level of NNMT protein in the Con-NCI-H82 cell.
# (§2) The cell viability was detected using the Promega CellTiter-Glo kit which reflected cell viability by measuring intracellular ATP content. The Con-NCI-H82 cell and ov-NNMT NCI-H82 cell was cultured in 10% fetal bovine serum-containing RPMI1640 medium (+P/S).
# [2] = system: ov-NNMT NCI-H82 cell; experiment: Cell viability (Promega CellTiter-Glo, intracellular ATP), IC50 on NNMT-overexpressing NCI-H82 cell; type: cell-based; details: Homo sapiens; NCI-H82 cell overexpressing NNMT protein
# Text: as §1, §2
smiles,measurement,setting,value
Cc1ccc(C(=O)C[n+]2ccc3c(c2)CCN3c2ccccc2)cc1 [AB24994],pIC50,[1],6.09
same,pIC50,[2],5.52
O=C(C[n+]1ccc2c(c1)CCC(c1ccccc1)N2)c1ccc(C(F)(F)F)cc1 (stereo not drawn) [AB27102],pIC50,[1],5.94
same,pIC50,[2],5.34
O=C1c2ccc(OC(F)(F)F)cc2CCC1[n+]1ccc2c(c1)CCC(c1ccccc1)N2 (stereo not drawn) [AB27105],pIC50,[1],6.06
same,pIC50,[2],5.27
O=C1c2ccc(C(F)(F)F)cc2CCC1[n+]1ccc(NCc2ccccc2)cc1 (stereo not drawn) [AB27110],pIC50,[1],6.00
same,pIC50,[2],5.30
Cc1cccc(-c2c[nH]c3c[n+](CC(=O)c4ccc(OC(F)(F)F)cc4)ccc23)c1 [AB27121],pIC50,[1],5.65
same,pIC50,[2],5.19
O=C1c2cc(Cl)ccc2CCC1[n+]1ccc2c(c1)CCC(c1ccccc1)N2 (stereo not drawn) [AB27134],pIC50,[1],5.47
same,pIC50,[2],4.91
O=C1c2cc(OC(F)(F)F)ccc2CCC1[n+]1cnc2c(c1)CCC(c1ccccc1)N2 (stereo not drawn) [AB27136],pIC50,[1],5.25
same,pIC50,[2],4.84
Cc1ccc2c(c1)C(=O)C([n+]1cnc3c(c1)CCC(c1ccccc1)N3)CC2 (stereo not drawn) [AB27137],pIC50,[1],5.36
same,pIC50,[2],4.92
O=C(C[n+]1ccc2c(c1)CCC(c1ccccc1)N2)c1cccc(C(F)(F)F)c1 (stereo not drawn) [AB27146],pIC50,[1],5.77
same,pIC50,[2],5.17
O=C(C[n+]1ccc2c(c1)CCC(c1ccccc1)N2)c1cccc(OC(F)(F)F)c1 (stereo not drawn) [AB27147],pIC50,[1],5.86
same,pIC50,[2],5.26
CCCn1ccc2c[n+](C3CCc4ccc(C(F)(F)F)cc4C3=O)ccc21 (stereo not drawn) [AB27150],pIC50,[1],6.20
same,pIC50,[2],5.50
CC(C)n1ccc2c[n+](C3CCc4ccc(C(F)(F)F)cc4C3=O)ccc21 (stereo not drawn) [AB27151],pIC50,[1],5.98
same,pIC50,[2],5.53
CC(C)n1ccc2c[n+](C3CCc4ccc(OC(F)(F)F)cc4C3=O)ccc21 (stereo not drawn) [AB27157],pIC50,[1],5.81
same,pIC50,[2],5.20
O=C(C[n+]1ccc(NCc2ccccc2)nc1)c1cccc(C(F)(F)F)c1 [AB27160],pIC50,[1],6.13
same,pIC50,[2],5.26
Cc1ccc2c(c1)CCC([n+]1ccc3c(c1)c(C)cn3Cc1ccccc1)C2=O (stereo not drawn) [AB27177],pIC50,[1],6.88
same,pIC50,[2],5.73
Cc1ccc2c(c1)C(=O)C(n1ccc3c[n+](C(C)c4ccccc4)ccc31)CC2 (stereo not drawn) [AB27180],pIC50,[1],7.80
same,pIC50,[2],6.65
CC(c1ccccc1)c1cn(C)c2c[n+](C3CCc4ccc(Cl)cc4C3=O)ccc12 (stereo not drawn) [AB27186],pIC50,[1],5.70
same,pIC50,[2],5.25
CC(c1ccccc1)[n+]1ccc2c(ccn2C2CCc3ccsc3C2=O)c1 (stereo not drawn) [AB27199],pIC50,[1],6.35
same,pIC50,[2],5.32
Cc1nc2c(s1)C(=O)C(n1ccc3c[n+](C(C)c4ccccc4)ccc31)CC2 (stereo not drawn) [AB27203],pIC50,[1],5.71
same,pIC50,[2],5.19
Cc1nc2c(s1)C(=O)C([n+]1ccc3c(ccn3Cc3ccccc3)c1)CC2 (stereo not drawn) [AB27204],pIC50,[1],5.46
same,pIC50,[2],4.87
CC(c1ccccc1)[n+]1ccc2c(ccn2C2CCc3ccoc3C2=O)c1 (stereo not drawn) [AB27205],pIC50,[1],5.55
same,pIC50,[2],5.02
O=C1c2occc2CCC1[n+]1ccc2c(ccn2Cc2ccccc2)c1 (stereo not drawn) [AB27206],pIC50,[1],5.59
same,pIC50,[2],5.12
O=C1c2cc(Cl)ccc2CCC1[n+]1ccc2c(ccn2C(=O)c2ccccc2)c1 (stereo not drawn) [AB27214],pIC50,[1],5.76
same,pIC50,[2],5.17
O=C1c2cc(Cl)ccc2CCC1[n+]1ccc2c(ccn2S(=O)(=O)c2ccccc2)c1 (stereo not drawn) [AB27215],pIC50,[1],5.79
same,pIC50,[2],4.97
CCC(=O)N(Cc1ccccc1)c1cc[n+](CC(=O)c2ccc(C)cc2)cc1 [AB27232],pIC50,[1],6.54
same,pIC50,[2],5.52
CCCC(=O)N(Cc1ccccc1)c1cc[n+](CC(=O)c2ccc(C)cc2)cc1 [AB27234],pIC50,[1],5.89
same,pIC50,[2],5.16
Cc1ccc(C(=O)C[n+]2ccc(N(Cc3ccccc3)C(=O)C(C)C)cc2)cc1 [AB27235],pIC50,[1],6.75
same,pIC50,[2],5.70
CCc1cc(NCc2ccccc2)cc[n+]1CC(=O)c1ccc(C)cc1 [AB27236],pIC50,[1],7.30
same,pIC50,[2],6.09
Cc1ccc(C(=O)C[n+]2ccc(NCc3ccccc3)cc2C(C)C)cc1 [AB27237],pIC50,[1],7.41
same,pIC50,[2],6.28
Cc1ccc(C(=O)C[n+]2ccc(NCc3ccccc3)cc2C2CC2)cc1 [AB27238],pIC50,[1],6.82
same,pIC50,[2],5.94
Cc1ccc(C[n+]2ccc3c(ccn3C3CCc4ccc(Cl)cc4C3=O)c2)cc1 (stereo not drawn) [AB27240],pIC50,[1],7.82
same,pIC50,[2],6.55
Cc1cccc(C[n+]2ccc3c(ccn3C3CCc4ccc(Cl)cc4C3=O)c2)c1 (stereo not drawn) [AB27241],pIC50,[1],7.85
same,pIC50,[2],6.74
Cc1ccccc1C[n+]1ccc2c(ccn2C2CCc3ccc(Cl)cc3C2=O)c1 (stereo not drawn) [AB27242],pIC50,[1],7.82
same,pIC50,[2],6.69
O=C1c2cc(Cl)ccc2CCC1n1ccc2c[n+](Cc3ccccc3Cl)ccc21 (stereo not drawn) [AB27243],pIC50,[1],7.82
same,pIC50,[2],6.74
O=C1c2cc(Cl)ccc2CCC1n1ccc2c[n+](Cc3cccc(Cl)c3)ccc21 (stereo not drawn) [AB27244],pIC50,[1],7.62
same,pIC50,[2],6.47
O=C1c2cc(Cl)ccc2CCC1n1ccc2c[n+](Cc3ccc(Cl)cc3)ccc21 (stereo not drawn) [AB27245],pIC50,[1],7.06
same,pIC50,[2],6.06
CCC(c1ccccc1)[n+]1ccc2c(ccn2C2CCc3ccc(Cl)cc3C2=O)c1 (stereo not drawn) [AB27246],pIC50,[1],7.74
same,pIC50,[2],6.51
O=C1c2cc(OC(F)(F)F)ccc2CCC1[n+]1ccc2c(ccn2CC2CC2)c1 (stereo not drawn) [AB27247],pIC50,[1],6.39
same,pIC50,[2],5.78
CCCCCn1ccc2c[n+](C3CCc4ccc(OC(F)(F)F)cc4C3=O)ccc21 (stereo not drawn) [AB27249],pIC50,[1],6.65
same,pIC50,[2],5.82
CCCCCn1ccc2c[n+](C3CCc4ccc(Cl)cc4C3=O)ccc21 (stereo not drawn) [AB27250],pIC50,[1],7.29
same,pIC50,[2],6.16
O=C1c2cc(Cl)ccc2CCC1[n+]1ccc2c(ccn2CC2CC2)c1 (stereo not drawn) [AB27252],pIC50,[1],6.01
same,pIC50,[2],5.43
CCCn1ccc2c[n+](C3CCc4ccc(Cl)cc4C3=O)ccc21 (stereo not drawn) [AB27253],pIC50,[1],5.77
same,pIC50,[2],5.26
O=C1c2sc(Cl)nc2CCC1[n+]1ccc2c(ccn2Cc2ccccc2)c1 (stereo not drawn) [AB27254],pIC50,[1],5.44
same,pIC50,[2],4.90
O=C(Cn1ccc2c[n+](Cc3ccccc3)ccc21)c1cccc(Cl)c1 [AB27258],pIC50,[1],7.85
same,pIC50,[2],6.56
Cc1cccc(C(=O)Cn2ccc3c[n+](Cc4ccccc4)ccc32)c1 [AB27259],pIC50,[1],7.74
same,pIC50,[2],6.63
Cc1ccc(C(=O)Cn2ccc3c[n+](Cc4ccccc4)ccc32)cc1 [AB27260],pIC50,[1],7.89
same,pIC50,[2],6.61
O=C(Cn1ccc2c[n+](Cc3ccccc3)ccc21)c1cccc(C(F)(F)F)c1 [AB27262],pIC50,[1],7.24
same,pIC50,[2],6.00
O=C(Cn1ccc2c[n+](Cc3ccccc3)ccc21)c1cccc(OC(F)(F)F)c1 [AB27263],pIC50,[1],7.49
same,pIC50,[2],6.49
O=C(Cn1ccc2c[n+](Cc3ccccc3)ccc21)c1ccc(C(F)(F)F)cc1 [AB27264],pIC50,[1],6.57
same,pIC50,[2],5.65
O=C(Cn1ccc2c[n+](Cc3ccccc3)ccc21)c1ccc(OC(F)(F)F)cc1 [AB27265],pIC50,[1],6.91
same,pIC50,[2],6.06
Cc1cn(CC(=O)c2cccc(Cl)c2)c2cc[n+](Cc3ccccc3)cc12 [AB27266],pIC50,[1],7.05
same,pIC50,[2],6.12
Cc1cccc(C(=O)Cn2cc(C)c3c[n+](Cc4ccccc4)ccc32)c1 [AB27267],pIC50,[1],6.95
same,pIC50,[2],6.04
Cc1ccc(C(=O)Cn2cc(C)c3c[n+](Cc4ccccc4)ccc32)cc1 [AB27268],pIC50,[1],6.98
same,pIC50,[2],5.88
O=C(Cn1cc(Cl)c2c[n+](Cc3ccccc3)ccc21)c1cccc(Cl)c1 [AB27269],pIC50,[1],6.63
same,pIC50,[2],5.66
Cc1cn(CC(=O)c2cccc(Cl)c2)c2cc[n+](C(C)c3ccccc3)cc12 (stereo not drawn) [AB27270],pIC50,[1],6.40
same,pIC50,[2],5.43
O=C1c2cc(Cl)ccc2CCC1n1cc(Cl)c2c[n+](Cc3ccccc3)ccc21 (stereo not drawn) [AB27271],pIC50,[1],7.47
same,pIC50,[2],6.25
Cc1ccc(C(=O)C[n+]2ccc(NCc3ccccc3)c3ccccc32)cc1 [AB27272],pIC50,[1],6.11
same,pIC50,[2],5.26

# Source: patent publication US20250214993A1, “AROMATIC RING COMPOUND AND USE THEREOF” (SHANGHAI SHIJIANG BIOTECHNOLOGY CO., LTD, priority 2022, published 2025)
